Data: US9421237B2, “Tripeptide boronic acid or boronic ester, preparative method and use thereof” (PEKING UNIVERSITY, priority 2009, dated 2016)

Key:
[1] = target: T1, 20S proteasome extracted from rat liver, trypsin-like (TL) activity (Rattus norvegicus, UniProt P40112+Q9JHW0); assay: Proteasome inhibition, trypsin-like (TL) activity, fluorescent peptide Z-Ala-Arg-Arg-AMC; format: biochemical; conditions: rat liver 20S proteasome, 37° C., 1 h; read-out: T-L (IC50)
T1 construct: 20S proteasome extracted from rat liver; from tissue; host or cells: rat liver
In short: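 Rat liver 20S proteasome (1 μg) incubated 1 h at 37 °C with compounds, 50 μM fluorogenic peptide and 20 mM Tris-HCl. AMC release read at 380/440 nm and βNA release at 335/410 nm. Inhibition rate calculated against a 0.1% DMSO solvent control.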

[2] = test system: HL-60 human leukemia cell; assay: Preliminary anti-tumor screening in vitro, MTT method; format: cell-based; parameters: key to Test results: +++: inhibition rates at three doses are greater than 50%; ++: inhibition rates at two doses are greater than 50%; +: inhibition rate at one dose is greater than 50%; conditions: HL-60, MTT; for Test results: number of doses with inhibition > 50%; for inhibition at 0.05 µM / inhibition at 0.5 µM / inhibition at 5 µM: Homo sapiens, read-out: Inhibition rate %
In short: (§1)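 In vitro cytotoxicity by routine methods: MTT read-out for HL-60 cells, SRB read-out for BGC-823, Bel-7402 and KB cells.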

[3] = test system: BGC-823 human gastric cancer cell; assay: Preliminary anti-tumor screening in vitro, SRB method; format: cell-based; parameters: key to Test results: +++: inhibition rates at three doses are greater than 50%; ++: inhibition rates at two doses are greater than 50%; +: inhibition rate at one dose is greater than 50%; conditions: BGC-823, SRB; for Test results: number of doses with inhibition > 50%; for inhibition at 0.05 µM / inhibition at 0.5 µM / inhibition at 5 µM: Homo sapiens, read-out: Inhibition rate %
In short: as §1

[4] = test system: Bel-7402 human hepatocarcinoma cell; assay: as above; format: cell-based; parameters: key to Test results: +++: inhibition rates at three doses are greater than 50%; ++: inhibition rates at two doses are greater than 50%; +: inhibition rate at one dose is greater than 50%; conditions: Bel-7402, SRB; for Test results: number of doses with inhibition > 50%; for inhibition at 0.05 µM / inhibition at 0.5 µM / inhibition at 5 µM: Homo sapiens, read-out: Inhibition rate %
In short: as §1

[5] = test system: KB human nasopharyngeal carcinoma cell; assay: as above; format: cell-based; parameters: key to Test results: +++: inhibition rates at three doses are greater than 50%; ++: inhibition rates at two doses are greater than 50%; +: inhibition rate at one dose is greater than 50%; conditions: for inhibition at 0.05 µM / inhibition at 0.5 µM / inhibition at 5 µM: Homo sapiens, read-out: Inhibition rate %; for Test results: number of doses with inhibition > 50%
In short: as §1

[6] = test system: BGC-823 (human gastric carcinoma cell strain); assay: In vitro anti-tumor activity (IC50), standard MTT method; format: cell-based; conditions: 72 h, average of three determinations
Method: (§2) HL-60, BXPC-3 and U266 were obtained from the American Type Culture Collection (Manassas, Va.), and BGC-823 (human gastric carcinoma cell strain) was obtained from China Pharmaceutical University.
(§3) Test methods: HL-60 cells were cultured in IMDM medium containing 20% fetal bovine serum at 37° C. in 5% CO2; BGC-823 cells and BXPC-3 cells were cultured in RPMI1640 medium containing 10% fetal bovine serum at 37° C. in 5% CO2; U266 cells were cultured in RPMI1640 medium containing 15% fetal bovine serum at 37° C. in 5% CO2.
(§4) The cell growth was measured by the standard MTT method. A dispersions (150 μL, containing 3000 cells) medium was added into each well of a 96-well plate and allowed to grow, after 24 h, ten kinds of medium (50 μL) containing different concentrations of drugs were added into the corresponding wells, and continued to incubate for 72 h. Then a solution containing 5 mg/ml MTT (20 μL) was added into each well and incubated for another 4 h at 37° C. The plate was then centrifugated at 1000 rpm at 4° C. for 5 min, and the medium in upper layer was carefully discarded. The precipitates were dissolved in 100 μL of DMSO, and absorbance was read with an Infinite M200 (Tecan, Austria) microplate reader at 540 nm.
(§5) The result was expressed as IC50 value, which is the average value of three independent determinations.

[7] = test system: BXPC-3 (human pancreatic cancer cell strain); assay: as above; format: cell-based; conditions: 72 h, average of three determinations
Method: as §2, §3, §4, §5

[8] = test system: HL-60 (promyelocytic leukemia cell strain); assay: as above; format: cell-based; conditions: Homo sapiens, 72 h, average of three determinations
Method: as §2, §3, §4, §5

[9] = test system: U266 (multiple myeloma cell strain); assay: as above; format: cell-based; conditions: Homo sapiens, U-266, 72 h, average of three determinations
Method: as §2, §3, §4, §5

murine H22 cells = assay: In vivo anti-tumor activity, H22 tumor in ICR mice, oral administration; conditions: for Animal numbers Start/End / Body weight (g) (X ± SD): ICR mice with H22; for Inhibition rate (%) / Tumor weight (g) (X ± SD): tumors weighed at 12th day
Method: Animal: ICR mice, half male and half female (18-22 g), provided by Laboratory Animal Science Department of Peking Medical University.
Tumor cell strain: murine H22 cells were provided by cell bank of pharmacological group of the State Key Laboratory of Natural and Biomimetic Drugs.
Method: Murine tumor cells were taken to be treated, and diluted to 5×10^6 cells/ml after treatment. The diluted tumor cells solution was inoculated to the left forelimb oxter of the mice with 0.2 ml/mouse under aseptic condition. 24 h after inoculation, the mice were divided into groups and orally administered once per day to the mice in each group for 10 days. At the 12th day, the tumors were peeled off and weighed, and the average weight of the tumor, standard deviation (SD) and p-value of each group were calculated.

[10] = 1 mg/kg orally once per day for 10 days
[11] = 2 mg/kg orally once per day for 10 days

| SMILES | IC50 [1] | Test results [2] | inhibition at 0.05 µM [2] | inhibition at 0.5 µM [2] | inhibition at 5 µM [2] | Test results [3] | inhibition at 0.05 µM [3] | inhibition at 0.5 µM [3] | inhibition at 5 µM [3] | Test results [4] | inhibition at 0.05 µM [4] | inhibition at 0.5 µM [4] | inhibition at 5 µM [4] | inhibition at 0.05 µM [5] | inhibition at 0.5 µM [5] | inhibition at 5 µM [5] | Test results [5] | IC50 [6] | IC50 [7] | IC50 [8] | further results |
| --- | --- | --- | --- | --- | --- | --- | --- | --- | --- | --- | --- | --- | --- | --- | --- | --- | --- | --- | --- | --- | --- |
| CC(C)C[C@H](NC(=O)[C@H](Cc1ccc2ccccc2c1)NC(=O)[C@H](CC(C)C)NC(=O)c1cnccn1)B(O)O [Compound 6f, N-pyrazineformyl-L-leucyl-L-naphthylalanyl-L-leucine Boronic Acid] | > 20 nM | ++ | 1.26% | 87.4% | 88.6% | +++ | 80.3% | 95.5% | 96.8% | ++ | 39.4% | 90.6% | 93.7% | 32.1% | 95.7% | 97.8% | ++ | 600 nM | 21.2 nM | 4.6 nM | IC50 [9]: 9.9 nM; Animal numbers Start/End (murine H22 cells; [10]): 8/6; Body weight (g) (X ± SD) (murine H22 cells; [10]): 1.49 ± 1.07 g; Inhibition rate (%) (murine H22 cells; [10]): 51.67%; Tumor weight (g) (X ± SD) (murine H22 cells; [10]): 0.60 ± 0.16 g; Animal numbers Start/End (murine H22 cells; [11]): 8/5; Body weight (g) (X ± SD) (murine H22 cells; [11]): 0.04 ± 4.29 g; Inhibition rate (%) (murine H22 cells; [11]): 55.34%; Tumor weight (g) (X ± SD) (murine H22 cells; [11]): 0.56 ± 0.17 g |
| CC(C)C[C@H](NC(=O)[C@H](Cc1ccc2ccccc2c1)NC(=O)[C@H](Cc1ccccc1)NC(=O)c1cnccn1)B(O)O [Compound 6g, N-pyrazineformyl-L-phenylalanyl-L-naphthylalanyl-L-leucine Boronic Acid] | > 20 nM | ++ | 5.68% | 87.8% | 88.6% | +++ | 76.9% | 95.5% | 97.1% | ++ | 37.9% | 72.2% | 93.4% | 59.4% | 96% | 96.7% | +++ | 1040 nM | 28.7 nM | 7.4 nM | IC50 [9]: 15.8 nM; Animal numbers Start/End (murine H22 cells; [10]): 8/8; Body weight (g) (X ± SD) (murine H22 cells; [10]): -1.28 ± 2.83 g; Inhibition rate (%) (murine H22 cells; [10]): 34.24%; Tumor weight (g) (X ± SD) (murine H22 cells; [10]): 0.82 ± 0.36 g; Animal numbers Start/End (murine H22 cells; [11]): 8/8; Body weight (g) (X ± SD) (murine H22 cells; [11]): -0.53 ± 2.58 g; Inhibition rate (%) (murine H22 cells; [11]): 56.33%; Tumor weight (g) (X ± SD) (murine H22 cells; [11]): 0.54 ± 0.28 g; Toxicity in the in vivo anti-tumor test, compared with bortezomib (PS341) (murine H22 cells; ICR mice with H22, oral): even lower |
